Measurements published in article PMC5995255, “CD44 positive and sorafenib insensitive hepatocellular carcinomas respond to the ATP-competitive mTOR inhibitor INK128” (Oncotarget, 2018).

What was measured:
[1] = system: Huh7CD44, PLC/PRF/5CD44, Huh7EV and PLC/PRF/5EV cells; assay: Cell proliferation, WST-1 assay, CD44 overexpressing versus empty vector cells; type: cell-based, human; conditions: 72 h
Experimental: An optimized DNA fragment for CD44 overexpression was designed and ordered from Invitrogen using GeneArt® Gene Synthesis. The optimized DNA fragment was cloned using GeneArt® Seamless Cloning technology into a p-EGFP-C1 vector graciously obtained from Matthew Wood's Lab. Huh7 and PLC/PRF/5 cells (CD44low) were transfected with 1500 ng of either CD44 vector or empty vector using Lipofectamine 3000 (Invitrogen). Forty-eight h after transfection, cells were selected using 150 μg/ml hygromycin (Life Technologies). Western blotting was used to confirm successful transfection and expression of CD44.

[2] = system: SK-Hep1 subcutaneous xenografts; assay: SK-Hep1 xenograft efficacy study; type: in vivo, athymic nude mice
Experimental: Immunodeficient athymic nude male mice (8 weeks) were obtained from Charles River laboratories and kept in the University's animal housing facility. SK-Hep1 cells were prepared from a low-passage, logarithmically growing population of cells. SK-Hep1 (3 × 10^6 cells) were suspended in 150 ul of Matrigel (Corning, NY, USA) and injected subcutaneously into the right flank of the mice. Three weeks after implantation, tumor sizes were measured using a Fisherbrand™ Traceable™ Digital Caliper (Thermo), the animals were randomized based on tumor size, and treatment was initiated. Tumor size measurements were taken twice a week throughout the treatment period.
Athymic nude mice bearing SK-Hep1 tumors were randomized into four groups (n = 10 per group); vehicle, sorafenib, INK128 and combination. Sorafenib (10 mg/kg) was prepared as a 4× stock solution in cremophor EL:ethanol (50:50), and diluted using water on the day of the treatment. Vehicle and sorafenib groups received their respective treatments every day via oral gavage. INK128 (3 mg/kg) was prepared in 10% DMSO and dosed via oral gavage every other day. The combination group received a daily dose of sorafenib (10 mg/kg) along with INK128 (3 mg/kg) every other day. Mice were monitored every day, and body weight and tumor size measurements were recorded twice a week throughout the treatment period. Tumor volume was calculated using the equation V= ½ × L × W^2. Treatment was continued for 24 days after which the animals were euthanized. Tumor growth is represented as percentage change from baseline tumor volume.

[3] = system: CD44 and vimentin protein expression in SNU423 cells; assay: Immunoblotting of CD44 and vimentin protein; type: cell-based, human; conditions: 48 h; SNU423 (rapalogs also SNU449)
Experimental: (§1) Cell protein lysates (20–30 μg) were separated on NuPAGE 4–12% Bis-Tris gels (Novex) electrophoretically and transferred to polyvinylidene difluoride membranes (Roche). Membranes were blocked for 1 h with 5% Bovine Serum Albumin in Tris-buffered saline containing 0.05% Tween 20 and incubated overnight with primary antibody. The following primary antibodies were used: anti-CD44 (Cell signaling, #3578), anti-vimentin (Abcam, ab92547), anti-total S6K (Cell signaling, # 2708), anti-phosphorylated S6K (Cell signaling, #9234), anti-total 4EBP-1 (Cell signaling, #9644), anti-phosphorylated 4EBP-1(Cell signaling, #2855) and anti-PARP (Cell signaling # 9532) Anti-GAPDH (Santa Cruz Biotechnology, sc-32233) and anti-β actin (Cell Signaling, 4970S) antibodies were used as loading controls. A secondary anti-rabbit (Cell Signaling) or anti-mouse immunoglobulin G (IgG) antibody peroxidase conjugate (GE Healthcare) was detected using ECL Western Blotting Analysis System (Amersham Biosciences).

phosphorylation of 4EBP1 = assay: Immunoblotting of phosphorylated 4EBP1; type: cell-based, human; conditions: CD44high cells; 48 h
Experimental: as §1

SNU423 cells = assay: Wound healing (in vitro migration) assay; type: cell-based, human; conditions: 500 nM; 30 h migration
Experimental: SNU423 cells were treated with either INK128 or everolimus at 500 nM or vehicle control (1% DMSO). At 24 h after treatment or transfection, 70 μl of the treated cells (3 × 10^5 cells/mL) was placed into each well of ibidi culture-insert (ibidi, LLC). After an overnight incubation, the culture insert was removed to create a cell-free gap in a monolayer of the cells. The gap closure area was photographed and analyzed by Tscratch software. Wound healing assay was further performed using Huh7 and PLC/PRF/5 cells to determine the effects of CD44 overexpression of migration. The percentage of the gap closure area based on the initial point at time zero was calculated from at least two independent experiments.

phosphorylation of S6K = assay: Immunoblotting of phosphorylated S6K; type: cell-based, human; conditions: CD44high cells; 48 h
Experimental: as §1

[4] = system: HCC cell lines (SNU423, SNU449 and Huh7); assay: Cell proliferation, WST-1 assay, three HCC cell lines; type: cell-based, human; conditions: 48 h
[5] = system: CD44 or vimentin mRNA in SNU423 cells; assay: qRT-PCR of CD44 and vimentin mRNA; type: cell-based, human; conditions: 500 nM; 48 h
Experimental: Total RNA was isolated from ATP-competitive mTOR inhibitor treated cells using miRNeasy® Mini kit (Qiagen). cDNA was synthesized according to the manufacturer's protocol (Invitrogen). Five hundred ng of total RNA was used to synthesize cDNA using random primers. cDNA was analyzed for gene expression using gene specific primers (IDT) and the Express SYBR® GreenER qPCR super mix (Invitrogen). Data were normalized to 18S rRNA and the relative expression of genes was presented using the comparative CT method. The following primers were used; CD44: 5′-TGCAGTT […]-3′ (forward) and 5′-[…]-3′ (reverse), Vimentin: 5′-CAGC […]-3′ (forward) and 5′-ATCCT […]-3′ (reverse), 18S: 5′-GT […]-3′(forward) and 5′-CCAT […]-3′(reverse)

[6] = system: CD44high HCC cells (SNU423, SNU449, SK-Hep-1); assay: Cell proliferation, WST-1 assay, CD44high HCC cells; type: cell-based, human
[7] = INK128 plasma pharmacokinetic study; type: in vivo, ICR mice
Experimental: All animal experiments were carried out under protocols approved by the Institutional Laboratory Animal Care and Use Committee at the Ohio State University. Imprinting control region (ICR) female mice (6 weeks) were obtained from Charles Rivers (Wilmington, MA, USA). Mice were acclimated in the animal housing facility for one week before the start of the study. After overnight fasting, INK128 (3 mg/kg) was administered by oral gavage (PO) in 10% DMSO. At different time points, mice were euthanized by carbon dioxide asphyxiation, and blood was immediately collected by cardiac puncture into lithium heparinized tubes (BD Microtainer, Becton, Dickson and Company, NJ, USA). Blood samples were centrifuged at 6000 × g for 5 min at 4°C. Plasma was collected and kept on dry ice before being stored at −80°C until analysis.
Plasma samples were thawed on ice. Blank mouse plasma was used for standard curves. Plasma aliquots (100 ul) were spiked with hesperetin (10 ul, 5000 ng/ml) as an internal standard and mixed by vortexing. Drugs were extracted with simple protein precipitation using cold acetonitrile, and the mixture was centrifuged at 13000 × g for 10 min. The supernatant was collected and dried under nitrogen. Dried samples were reconstituted with 200 ul 1% formic acid. Samples were analyzed using liquid chromatography–tandem mass spectrometry (LC-MS/MS) system consisting of Thermo Accela UHPLC pump, Thermo PAL autosampler, and Thermo TSQ Discovery triple quadruple mass spectrometer (Thermo, Waltham, MA, USA). Chromatographic separation was done using an Agilent Zobrax Extend C-18 column. Linear gradient elution was used at a flow rate of 400 ul/min, with a mobile phase of […] and 95% acetonitrile, modified with 0.2% formic acid. Non-compartmental analysis of the pharmacokinetic parameters as well as compartmental model fitting of the data was carried using Phoenix® 7.0 (Certara, New Jersey, USA).

[8] = system: sorafenib resistant Huh7 cells; assay: Cell proliferation, WST-1 assay, sorafenib resistant Huh7; type: cell-based, human; conditions: 72 h
Experimental: A sorafenib-resistant Huh7 cell line was established by long term exposure to incremental concentrations of sorafenib (LC Laboratories, USA) as reported. Following six months of culture in 10 cm cell culture dishes, resistant cells were diluted out in 96 well plates and single cell clones were selected and scaled up to be used in further experiments.

[9] = 3 mg/kg oral gavage, single dose, plasma
[10] = female, ICR, mouse, plasma, po, 3 mg/kg, 3 mg/kg oral gavage, single dose
[11] = female, ICR, mouse, 3 mg/kg oral gavage, single dose, plasma

For `CNC(=O)c1cc(Oc2ccc(NC(=O)Nc3ccc(Cl)c(C(F)(F)F)c3)cc2)ccn1` [sorafenib], the “ability to reduce proliferation as a function of CD44 protein” value [1] was “no difference”, the “tumor size increase compared to baseline” value ([2]; 10 mg/kg daily oral gavage, 24 days) was 46% and the “inhibition in tumor growth compared to vehicle control” value ([2]; 10 mg/kg daily oral, not significant) was “approximately 15%”.
For `CO[C@H]1C[C@@H]2CC[C@@H](C)[C@@](O)(O2)C(=O)C(=O)N2CCCC[C@H]2C(=O)O[C@H]([C@H](C)C[C@@H]2CC[C@@H](OCCO)[C@H](OC)C2)CC(=O)[C@H](C)/C=C(\C)[C@@H](O)[C@@H](OC)C(=O)[C@H](C)C[C@H](C)/C=C/C=C/C=C/1C` [everolimus], the “CD44 and vimentin protein expression” value [3] was “did not alter”, the “phosphorylation of 4EBP1” value (phosphorylation of 4EBP1) was “did not inhibit” and the “decrease of cell movement compared to vehicle control” value (SNU423 cells) was 20%. For the same compound, the “phosphorylation of S6K” value (phosphorylation of S6K) was “blocked” and the “proliferation (lowest level reached)” value ([4]; even at 5000 nM) was at least 40%.
With `CC(C)n1nc(-c2ccc3oc(N)nc3c2)c2c(N)ncnc21` [INK128] the “CD44 or vimentin mRNA” value [5] was “no change”, the “CD44 and vimentin protein expression” value [3] was “great reduction” and the “reduction of proliferation in CD44high compared to CD44low cells” value ([6]; 72 h, CD44low: Huh7, PLC/PRF/5, HepG2) was “more effective”. The inhibition at 0.1 µM ([6]; Homo sapiens, 100 nM, CD44high cells (Figure 1C), read-out: inhibition in cellular proliferation) was 60%, the “anti-proliferative activity versus allosteric mTOR inhibitors” value ([6]; SNU423 and SNU449 cells, 48 h) was “better anti-proliferative activity than rapamycin and everolimus” and the “time with drug concentrations greater than 100 nM” value ([7]; 3 mg/kg oral gavage) was “approximately 16 h”. For the same compound, the CL [7, 9] was 0.000582 L/min, the Cmax [7, 9] was 2030 nM and the tolerability ([7]; 3 mg/kg oral, all animals of the pharmacokinetic study) was “well tolerated”. It also gave a Cmax [7, 10] of 2030 nM, a Tmax [7, 10] of at most 0.25 h and a concentration at 24 h ([7]; female, ICR, mouse, plasma, 3 mg/kg oral gavage, 24 h, read-out: plasma concentration 24 h post dose) of 24.6 nM. For the same compound, the AUC(0-t) [7, 11] was 7.38 µM·h, the half-life [7, 11] was 1.81 h and the “anti-proliferative response of CD44 expressing cells versus empty vector cells” value ([1]; 500 nM) was “responded better”. The “phosphorylation of 4EBP1” value (phosphorylation of 4EBP1) was “inhibited”, the “anti-proliferative effects versus wildtype CD44low Huh7 cells” value [8] was “greater anti-proliferative effects” and the “decrease of cell movement compared to vehicle control” value (SNU423 cells) was 50%. For the same compound, the “phosphorylation of S6K” value (phosphorylation of S6K) was “inhibited”, the “reduction of tumor burden compared to vehicle control or sorafenib alone” value ([2]; 3 mg/kg every other day oral) was “up to 30%” and the “reduction in tumor volume (from baseline)” value ([2]; INK128 3 mg/kg every other day oral, alone or with sorafenib 10 mg/kg daily, 24 days) was 24%.
For `CO[C@H]1C[C@@H]2CC[C@@H](C)[C@@](O)(O2)C(=O)C(=O)N2CCCC[C@H]2C(=O)O[C@H]([C@H](C)C[C@@H]2CC[C@@H](O)[C@H](OC)C2)CC(=O)[C@H](C)/C=C(\C)[C@@H](O)[C@@H](OC)C(=O)[C@H](C)C[C@H](C)/C=C/C=C/C=C/1C` [rapamycin], the “CD44 and vimentin protein expression” value [3] was “did not alter”, the “phosphorylation of 4EBP1” value (phosphorylation of 4EBP1) was “did not inhibit” and the “phosphorylation of S6K” value (phosphorylation of S6K) was “blocked”. The “proliferation (lowest level reached)” value [4] was at least 40%.
